Two compounds from ChEMBL document CHEMBL1909635, “Selectivity of 3'-O-methylponkoranol for inhibition of N- and C-terminal maltase glucoamylase and sucrase isomaltase, potential therapeutics for digestive disorders or their sequelae” (Bioorg Med Chem Lett, 2011) can be followed below.

Assay [1] in a line: Inhibition of human recombinant C-terminal subunit of maltase-glucoamylase-N2 by Lineweaver-Burk plot analysis.
The nature of assay [2]: Inhibition of human recombinant C-terminal subunit of maltase-glucoamylase-N20 by Lineweaver-Burk plot analysis.
Assay [3] concerns the target T1, Sucrase-isomaltase, intestinal (Homo sapiens, UniProt P14410). The assay is described as follows: Inhibition of human recombinant N-terminal Sucrase-isomaltase by Lineweaver-Burk plot analysis.
Assay [4] concerns the target T1, Sucrase-isomaltase, intestinal. The assay is described as follows: Inhibition of human recombinant C-terminal Sucrase-isomaltase by Lineweaver-Burk plot analysis.
For assay [5], the species on record is Homo sapiens. The assay is described as follows: Selectivity ratio of Ki for human recombinant N-terminal maltase-glucoamylase to Ki for human recombinant C-terminal Sucrase-isomaltase.
Assay [6] is filed under the species Homo sapiens. The assay is described as follows: Selectivity ratio of Ki for human recombinant N-terminal Sucrase-isomaltase to Ki for human recombinant C-terminal Sucrase-isomaltase.
The species entered for assay [7] is Homo sapiens. The assay is described as follows: Selectivity ratio of Ki for human recombinant N-terminal maltase-glucoamylase to Ki for human recombinant C-terminal subunit of maltase-glucoamylase-N20.
The species named for assay [8] is Homo sapiens. The assay is described as follows: Selectivity ratio of Ki for human recombinant N-terminal maltase-glucoamylase to Ki for human recombinant C-terminal subunit of maltase-glucoamylase-N2.

Each structure is given as a SMILES string.

A word on the Ki: it is the equilibrium dissociation constant of an inhibitor or competing ligand from its target.

T1 sequence (P14410 2-1007 limits assumed): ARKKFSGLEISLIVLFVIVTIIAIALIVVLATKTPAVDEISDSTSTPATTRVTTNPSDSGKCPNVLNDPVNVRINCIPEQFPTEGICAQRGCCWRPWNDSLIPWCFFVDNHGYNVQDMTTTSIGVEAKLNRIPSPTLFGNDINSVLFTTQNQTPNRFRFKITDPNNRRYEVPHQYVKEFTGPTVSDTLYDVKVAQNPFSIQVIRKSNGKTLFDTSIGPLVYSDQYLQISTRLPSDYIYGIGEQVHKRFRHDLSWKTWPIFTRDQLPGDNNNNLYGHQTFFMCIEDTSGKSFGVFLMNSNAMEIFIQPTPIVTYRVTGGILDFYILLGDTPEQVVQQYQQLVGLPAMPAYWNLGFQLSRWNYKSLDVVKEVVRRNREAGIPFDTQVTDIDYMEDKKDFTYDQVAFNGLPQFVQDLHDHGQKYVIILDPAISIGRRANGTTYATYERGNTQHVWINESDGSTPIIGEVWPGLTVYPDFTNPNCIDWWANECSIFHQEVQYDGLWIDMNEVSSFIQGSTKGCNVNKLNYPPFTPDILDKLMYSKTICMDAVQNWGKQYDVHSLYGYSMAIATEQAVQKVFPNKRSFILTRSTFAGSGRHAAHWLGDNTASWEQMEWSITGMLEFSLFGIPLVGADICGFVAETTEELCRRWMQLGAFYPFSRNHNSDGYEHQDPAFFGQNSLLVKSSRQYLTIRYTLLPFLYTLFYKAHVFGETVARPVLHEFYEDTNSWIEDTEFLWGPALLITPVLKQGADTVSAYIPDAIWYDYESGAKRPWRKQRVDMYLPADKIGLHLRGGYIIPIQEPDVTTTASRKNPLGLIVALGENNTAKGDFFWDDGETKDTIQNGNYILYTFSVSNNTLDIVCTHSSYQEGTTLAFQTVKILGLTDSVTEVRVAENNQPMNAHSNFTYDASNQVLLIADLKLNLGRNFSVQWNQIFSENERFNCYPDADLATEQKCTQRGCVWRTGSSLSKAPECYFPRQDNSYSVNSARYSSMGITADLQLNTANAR
T1 sequence (P14410 1008-1827 limits assumed): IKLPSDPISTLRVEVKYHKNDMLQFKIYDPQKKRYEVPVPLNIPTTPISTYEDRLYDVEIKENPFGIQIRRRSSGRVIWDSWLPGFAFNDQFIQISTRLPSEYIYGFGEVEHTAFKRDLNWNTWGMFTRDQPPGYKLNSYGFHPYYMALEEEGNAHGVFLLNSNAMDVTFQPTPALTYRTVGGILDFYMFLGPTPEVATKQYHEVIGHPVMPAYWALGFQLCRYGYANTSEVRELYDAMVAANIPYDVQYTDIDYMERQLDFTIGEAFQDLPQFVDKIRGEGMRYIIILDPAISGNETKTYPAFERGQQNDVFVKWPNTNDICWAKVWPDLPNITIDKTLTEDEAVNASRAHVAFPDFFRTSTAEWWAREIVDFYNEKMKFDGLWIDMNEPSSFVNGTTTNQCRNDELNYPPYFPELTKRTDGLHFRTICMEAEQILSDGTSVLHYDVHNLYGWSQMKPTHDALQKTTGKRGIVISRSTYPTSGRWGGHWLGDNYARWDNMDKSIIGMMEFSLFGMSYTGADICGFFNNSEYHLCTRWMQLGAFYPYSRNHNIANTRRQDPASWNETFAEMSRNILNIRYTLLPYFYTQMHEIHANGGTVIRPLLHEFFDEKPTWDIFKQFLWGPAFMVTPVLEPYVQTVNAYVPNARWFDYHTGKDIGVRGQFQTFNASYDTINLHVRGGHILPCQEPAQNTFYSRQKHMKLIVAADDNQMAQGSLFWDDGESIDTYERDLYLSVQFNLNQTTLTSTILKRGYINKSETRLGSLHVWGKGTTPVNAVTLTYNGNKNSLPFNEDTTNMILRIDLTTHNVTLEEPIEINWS

`OC[C@@H]1[C@@H](O)[C@H](O)C[S@@+]1C[C@@H](O)[C@@H](O)[C@H](O)[C@@H](O)CO.[Cl-]` [NEOPONKORANOL]: the Ki result in assay [1] was “Not Active”; in assay [2], 96 nM; in assay [3] it was 302 nM; in assay [4] it was 103 nM.

Take `CO[C@@H]([C@H](O)[C@@H](O)CO)[C@H](O)C[S@+]1C[C@@H](O)[C@H](O)[C@H]1CO`: the Ki was 60 nM in assay [1] (read-out: Ki), 55 nM in assay [2], 35 nM in assay [3] and 7 nM in assay [4]. For the same compound, the Ratio Ki was determined as 70 in assay [5], 5 in assay [6], 10 in assay [7] and 10 in assay [8].
